Experimental data from PMC11603275, “Synthesis and Antimicrobial Evaluation of New 1,2,4-Triazolo[1,5-a]pyrimidine-Based Derivatives as Dual Inhibitors of Bacterial DNA Gyrase and DHFR” (ACS Omega, 2024).
Values after ≈ are worked out from the molar mass of the structure shown. Read-outs that look alike come from different tables or passages of the source.

Legend:
[1] = test system: Gram-positive and Gram-negative bacterial strains; set-up: method as in ref 29 = [29]; Ghaly M. A.; El-Bendary E. R.; Shehata I. A.; Bayomi S. M.; Habib E. Synthesis, antimicrobial activity, DNA-binding affinity and molecular docking of certain 1, 2, 4-triazolo [1, 5-a] pyrimidines; details: cited from earlier work
[2] = target: DNA, Gram-positive strains; set-up: method as in ref 29 = [29]; Ghaly M. A.; El-Bendary E. R.; Shehata I. A.; Bayomi S. M.; Habib E. Synthesis, antimicrobial activity, DNA-binding affinity and molecular docking of certain 1, 2, 4-triazolo [1, 5-a] pyrimidines; details: cited from earlier work
[3] = target: DNA, Gram-negative strains; set-up: method as in ref 29 = [29]; Ghaly M. A.; El-Bendary E. R.; Shehata I. A.; Bayomi S. M.; Habib E. Synthesis, antimicrobial activity, DNA-binding affinity and molecular docking of certain 1, 2, 4-triazolo [1, 5-a] pyrimidines; details: cited from earlier work
B. subtilis [4] = test: MIC assay, 2-fold serial dilution in 96-well microtiter plate; format: cell-based, Bacillus subtilis (ATCC 6051)
Description: (§1) The outcomes of this in vitro assay test align with the results of the antimicrobial sensitivity test.
(§2) Appendix A (Supplementary File) provides experimental details.
(§3) In 96-well microtiter plates and […] of fresh bacterial culture of a single McFarland unit overnight, a double serial dilution of each compound […] in sterile standard saline were prepared to every single source well. […] The plates were incubated at 37 °C overnight. As an indicator of bacterial growth, […] of p-iodonitrotetrazolium violet (INT) was added to each well and incubated at 37 °C for 30 min. […] The colorless tetrazolidium salt acts as an electron accepter and is reduced to a red colored formazan product by biological activity organisms. Where bacterial growth was inhibited, the solution in the well remained clear after incubation with INT.

S. aureus [5] = test: as above; format: cell-based, Staphylococcus aureus (ATCC 12600)
Description: as §1, §2, §3

E. coli [6] = test: as above; format: cell-based, Escherichia coli (ATCC 11775)
Description: as §1, §2, §3

P. aeruginosa [7] = test: as above; format: cell-based, Pseudomonas aeuroginosa (ATCC 10145)
Description: as §1, §2, §3

B. subtilis [8] = test: Minimum bactericidal concentration (MBC) assay; format: cell-based, Bacillus subtilis
From the text: (§4) The MBC differs from the MIC. […] Unlike the MBC, which leads to mortality, the MIC hinders bacterial growth without causing death.[41] The common expression for MBC is MBC50, signifying the antibiotic concentration that eliminates 50% of the initial bacterial population.[42]

S. aureus [9] = test: Minimum bactericidal concentration (MBC) assay; format: cell-based, Staphylococcus aureus
From the text: as §4

E. coli [10] = test: Minimum bactericidal concentration (MBC) assay; format: cell-based, Escherichia coli
From the text: as §4

P. aeruginosa [11] = test: Minimum bactericidal concentration (MBC) assay; format: cell-based, Pseudomonas aeuroginosa
From the text: as §4

A. flavus [12] = test: Antifungal MIC assay, 2-fold serial dilution; format: cell-based, Aspergillus flavus
C. albicans [13] = test: Antifungal MIC assay, 2-fold serial dilution; format: cell-based, Candida albicans
E. coli DNA gyrase = target: T1, E. coli DNA gyrase (Escherichia coli, UniProt P0AES6); test: DNA gyrase inhibitory (supercoiling) assay; format: biochemical
T1 construct: purchased Inspiralis
Description: (§5) IC50 values were determined using seven different inhibitor concentrations and then calculated using the GraphPad Prism 6.0 software.
All the final compounds were tested for E. coli DNA gyrase inhibitory activity in a supercoiling assay. Activities were determined on streptavidin-coated 96-well microtiter plates from Thermo scientific Pierce. […] After washing off the unbound oligonucleotide, the enzyme test was performed. […] After that, the TF buffer (50 mM NaOAc with pH 5.0, 50 mM NaCl and 50 mM MgCl2) was added to terminate the enzymatic reaction. After additional incubation for 30 min at rt, during which biotin-oligonucleotide-plasmid triplex was formed, the unbound plasmid was washed off using TF buffer and SybrGOLD in T10 buffer (10 mM Tris HCl with pH 8.0 and 1 mM EDTA) was added. […] Initial screening was done at 100 or 10 μM concentration of inhibitors. […] GraphPad Prism software was used to calculate the IC50 values. The result is given as the average value of three independent measurements.

DHFR E. coli = target: T2, DHFR E. coli (Escherichia coli, UniProt P0ABQ4); test: DHFR inhibitory assay; format: biochemical
T2 construct: purchased Inspiralis
T2 sequence (P0ABQ4 whole entry): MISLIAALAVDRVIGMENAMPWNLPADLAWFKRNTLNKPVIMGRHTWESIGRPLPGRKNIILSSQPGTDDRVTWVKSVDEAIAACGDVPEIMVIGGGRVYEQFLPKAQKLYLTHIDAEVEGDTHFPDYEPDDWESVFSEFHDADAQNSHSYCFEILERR
Description: as §5

B. subtilis [14] = test: Modified disk diffusion, inhibition zone; details: B. subtilis (G+)
S. aureus [15] = test: Modified disk diffusion, inhibition zone; details: S. aureus (G+)
E. coli [16] = test: Modified disk diffusion, inhibition zone; details: E. coli (G-)
P. aeruginosa [17] = test: Modified disk diffusion, inhibition zone; details: P. aeruginosa (G-)
A. flavus [18] = test: Modified disk diffusion, inhibition zone; details: A. flavus (fungi)
C. albicans [19] = test: Modified disk diffusion, inhibition zone; details: C. albicans (fungi)
[20] = test system: Gram-positive and Gram-negative bacteria (B. subtilis, S. aureus, E. coli, P. aeruginosa); test: Disk diffusion, inhibition zones summarised over the tested bacterial strains; details: over the four tested bacterial strains
[21] = target: S. aureus topoisomerase IV; set-up: method as in ref 44 (a number printed in a supplementary file, which may have a reference list of its own: not looked up in the article's list); details: internal standard value given in the method; cited from earlier work
tested bacteria = test: MIC summarised over the tested bacteria (abstract); format: cell-based; details: read-out: MIC values
Description: as §1, §3

Gram-positive bacteria = test: MBC summarised over Gram-positive bacteria; format: cell-based
From the text: as §4

DNA gyrase = target: DNA gyrase; set-up: method as in PMID 31711767; details: cited from earlier work
tested fungal species = test: MIC summarised over the tested fungal species (abstract); format: cell-based; details: range over tested fungal species
[22] = test system: A. flavus and C. albicans; test: Disk diffusion, inhibition zones summarised over the fungal species; details: against A. flavus and C. albicans
[23] = Bacillus subtilis, read-out: MIC
[24] = Staphylococcus aureus, read-out: MIC
[25] = Escherichia coli, read-out: MIC
[26] = Pseudomonas aeruginosa, read-out: MIC
[27] = Bacillus subtilis, read-out: MBC
[28] = Staphylococcus aureus, read-out: MBC
[29] = Escherichia coli, read-out: MBC
[30] = Pseudomonas aeruginosa, read-out: MBC
[31] = Aspergillus flavus, read-out: MIC
[32] = Candida albicans, read-out: MIC

SMILES	MIC (B. subtilis [4]; [23])	MIC (S. aureus [5]; [24])	MIC (E. coli [6]; [25])	MIC (P. aeruginosa [7])	MIC (P. aeruginosa [7]; [26])	MBC (B. subtilis [8]; [27])	MBC (S. aureus [9]; [28])	MBC (E. coli [10])	MBC (E. coli [10]; [29])	MBC (P. aeruginosa [11])	MBC (P. aeruginosa [11]; [30])	MIC (A. flavus [12]; [31])	MIC (C. albicans [13]; [32])	Inhibition Zone (IZ) Diameter (B. subtilis [14])	Inhibition Zone (IZ) Diameter (E. coli [16])	Inhibition Zone (IZ) Diameter (P. aeruginosa [17])	Inhibition Zone (IZ) Diameter (A. flavus [18])	Inhibition Zone (IZ) Diameter [20]	other results
NNC(=O)c1c[nH]c2nc(N3CCCC3)nn2c1=O [IIIb]	–	–	–	–	–	–	–	–	–	–	–	–	–	–	–	–	–	–	MIC [1]: ≥ 2 µg/mL; IC50, DNA displacement experiment [2]: 61 µg/mL (≈ 232 µM); IC50, DNA displacement experiment [3]: 40 µg/mL (≈ 152 µM)
COc1ccc(-c2cc(-c3ccc(OC)cc3)n3nc(-c4ccccc4)nc3n2)cc1 [Compound 9p, 5,7-Bis(4-methoxyphenyl)-2-phenyl-1,2,4-triazolo[1,5-a]pyrimidine]	0.035 ± 0.002 µM (≈ 0.0143 µg/mL)	0.069 µM (≈ 0.0282 µg/mL)	0.069 ± 0.004 µM (≈ 0.0282 µg/mL)	0.068 ± 0.005 µM (≈ 0.0278 µg/mL)	0.068 µM (≈ 0.0278 µg/mL)	0.052 ± 0.003 µM (≈ 0.0212 µg/mL)	0.069 ± 0.003 µM (≈ 0.0282 µg/mL)	0.097 ± 0.006 µM (≈ 0.0396 µg/mL)	0.097 µM (≈ 0.0396 µg/mL)	0.098 ± 0.006 µM (≈ 0.04 µg/mL)	0.098 µM (≈ 0.04 µg/mL)	19.9 ± 1 µM (≈ 8.13 µg/mL)	23.7 ± 1 µM (≈ 9.68 µg/mL)	38 mm/mL	37 mm/mL	38 mm/mL	30 mm/mL	approximately 38 mm	MIC (S. aureus [5]): 0.037 ± 0.002 µM (≈ 0.0151 µg/mL); IC50 (E. coli DNA gyrase): 205 ± 13 nM; IC50 (DHFR E. coli): 5400 ± 200 nM; Inhibition Zone (IZ) Diameter (S. aureus [15]): 39; Inhibition Zone (IZ) Diameter (C. albicans [19]): 31 mm
CO[C@@H]1[C@@H](OC(N)=O)[C@@H](O)[C@H](Oc2ccc3c(O)c(NC(=O)c4ccc(O)c(CC=C(C)C)c4)c(=O)oc3c2C)OC1(C)C [Novobiocin]	–	–	–	–	–	–	–	–	–	–	–	–	–	–	–	–	–	–	IC50 [21]: 26700 nM
O=C(O)c1cn(C2CC2)c2cc(N3CCNCC3)c(F)cc2c1=O [Ciprofloxacin, reference compound]	0.01 µM (≈ 0.00331 µg/mL)	0.03 ± 0.002 µM (≈ 0.00994 µg/mL)	0.06 ± 0.004 µM (≈ 0.0199 µg/mL)	0.06 ± 0.005 µM (≈ 0.0199 µg/mL)	0.06 µM (≈ 0.0199 µg/mL)	0.019 µM (≈ 0.0063 µg/mL)	0.046 µM (≈ 0.0152 µg/mL)	0.09 ± 0.006 µM (≈ 0.0298 µg/mL)	0.09 µM (≈ 0.0298 µg/mL)	0.09 ± 0.006 µM (≈ 0.0298 µg/mL)	0.09 µM (≈ 0.0298 µg/mL)	–	–	40 mm/mL	40 mm/mL	40 mm/mL	–	40 mm	MIC (B. subtilis [4]): 0.01 ± 0.001 µM (≈ 0.00331 µg/mL); MBC (B. subtilis [8]): 0.019 ± 0.001 µM (≈ 0.0063 µg/mL); MBC (S. aureus [9]): 0.045 ± 0.002 µM (≈ 0.0149 µg/mL); MIC (tested bacteria): 10 to 90 µM (≈ 3.31 to 29.8 µg/mL); MBC (Gram-positive bacteria): 0.019 to 0.045 µM (≈ 0.0063 to 0.0149 µg/mL)
COc1ccc(CCc2nc3[nH]cc(C(=O)NN)c(=O)n3n2)cc1OC [IIIa]	–	–	–	–	–	–	–	–	–	–	–	–	–	–	–	–	–	–	MIC [1]: ≥ 2 µg/mL; IC50, DNA displacement experiment [2]: 61 µg/mL (≈ 170 µM); IC50, DNA displacement experiment [3]: 40 µg/mL (≈ 112 µM)
COc1ccc(-c2cc(-c3ccc(C)cc3)n3nc(-c4ccccc4)nc3n2)cc1 [Compound 9o, 5-(4-Methoxyphenyl)-2-phenyl-7-p-tolyl-1,2,4-triazolo[1,5-a]pyrimidine]	0.016 µM (≈ 0.00628 µg/mL)	0.024 µM (≈ 0.00942 µg/mL)	0.051 µM (≈ 0.02 µg/mL)	0.053 ± 0.004 µM (≈ 0.0208 µg/mL)	0.053 µM (≈ 0.0208 µg/mL)	0.032 µM (≈ 0.0126 µg/mL)	0.046 µM (≈ 0.0181 µg/mL)	0.087 ± 0.006 µM (≈ 0.0341 µg/mL)	0.087 µM (≈ 0.0341 µg/mL)	0.084 ± 0.005 µM (≈ 0.033 µg/mL)	0.084 µM (≈ 0.033 µg/mL)	15.5 µM (≈ 6.08 µg/mL)	19.5 µM (≈ 7.65 µg/mL)	43 mm/mL	43 mm/mL	42 mm/mL	35 mm/mL	42–45 mm	MIC (B. subtilis [4]): 0.016 ± 0.001 µM (≈ 0.00628 µg/mL); times less effective than ciprofloxacin (MIC) (B. subtilis [4]): 1.6; MIC (S. aureus [5]): 0.024 ± 0.001 µM (≈ 0.00942 µg/mL); MIC (E. coli [6]): 0.051 ± 0.003 µM (≈ 0.02 µg/mL); MBC (B. subtilis [8]): 0.032 ± 0.002 µM (≈ 0.0126 µg/mL); folds less potent than ciprofloxacin as a bactericidal agent (MBC) (B. subtilis [8]): 1.7; MBC (S. aureus [9]): 0.046 ± 0.002 µM (≈ 0.0181 µg/mL); MIC (A. flavus [12]): 15.50 ± 1 µM (≈ 6.08 µg/mL); MIC (C. albicans [13]): 19.50 ± 1 µM (≈ 7.65 µg/mL); IC50 (E. coli DNA gyrase): 182 ± 10 nM; IC50 (DHFR E. coli): 3900 ± 100 nM; Inhibition Zone (IZ) Diameter (S. aureus [15]): 45; Inhibition Zone (IZ) Diameter (C. albicans [19]): 38 mm
O=C(NNC(=O)c1c[nH]c2ncnn2c1=O)c1ccccc1 [Compound IV]	–	–	–	–	–	–	–	–	–	–	–	–	–	–	–	–	–	–	IC50 (DNA gyrase): 680 nM
OC(Cn1cncn1)(Cn1cncn1)c1ccc(F)cc1F [Fluconazole, reference compound]	–	–	–	–	–	–	–	–	–	–	–	11.5 µM (≈ 3.52 µg/mL)	17.5 µM (≈ 5.36 µg/mL)	–	–	–	40 mm/mL	–	MIC (A. flavus [12]): 11.50 ± 1 µM (≈ 3.52 µg/mL); MIC (C. albicans [13]): 17.50 ± 1 µM (≈ 5.36 µg/mL); MIC (tested fungal species): 11.5 to 17.5 µM (≈ 3.52 to 5.36 µg/mL); Inhibition Zone (IZ) Diameter [22]: 40 mm
